In article PMC11217935, “Facile Halogenation of Antimicrobial Peptides As Demonstrated by Producing Bromotryptophan-Labeled Nisin Variants with Enhanced Antimicrobial Activity” (Journal of Natural Products, 2024):
Values after ≈ are worked out from the molar mass of the structure shown.

Key:
[1] = tested on: Lactococcus lactis MG1363; type: cell-based; conditions: for fold decrease in activity: L. lactis (MG1363), from MIC values, I1W compared with nisin, analogue-labelled variants by the numbers compared with Trp variant
Method: (§1) MIC values were determined using broth microdilution according to standard guidelines.[42] The inoculum was adjusted to approximately 5 × 10^5 CFU/mL, and the MIC was defined as the lowest concentration of antimicrobial compound with no visible growth after overnight incubation at 37 °C (or at 30 °C for L. lactis strain).

Bacillus cereus CH-85 = experiment: MIC, broth microdilution; type: cell-based; conditions: one of two tested pathogens (B. cereus CH-85); compared with wild-type nisin
Method: as §1

[2] = tested on: Staphylococcus aureus LMG15975 (MRSA); experiment: MIC, broth microdilution; type: cell-based; conditions: one of two tested pathogens (S. aureus LMG15975 MRSA), WHO priority pathogen; compared with wild-type nisin
Method: as §1

[3] = Spot-on-lawn assay to test lipid II binding; type: cell-based, Bacillus cereus; conditions: B. cereus CH-85 lawn on LB agar; lipid II (600 μM, 2 μL per Figure 6; 0.8 mol/L, 2 μL per method) spotted at edge of halo; overnight 37 °C; preliminary results
Method: A 0.1% (v/v) inoculum of B. cereus CH-85 from an overnight culture was added to 1.5% (w/v) LB agar at 45 °C, and 10 mL of the mixture was poured onto a plate. The binding of the peptide to lipid II was evaluated by spotting purified lipid II ([…], 2 μL)[38],[41] at the edge of the 0.2 mg antibiotic inhibition halo. Specifically, 5 μL of the antibiotic was loaded onto the agar plate, and after drying, the lipid II solution was spotted at the edge of the inhibition halo. The plate was then incubated overnight at 37 °C.

B. cereus CH-85 = experiment: Time-kill assay; type: cell-based, Bacillus cereus; conditions: within 3 h, 5 × 10^5 cells per mL, 37 °C, triplicate
Method: The antimicrobial activity of nisin and its brominated variants was evaluated against B. cereus CH-85 using a previously described procedure.[38],[41] Briefly, an overnight culture of B. cereus was diluted 50-fold in LB medium and grown at 37 °C with aeration until reaching an OD600 of 0.5, after which the cell concentration was adjusted to 5 × 10^5 cells per mL. Bacteria were then exposed to different concentrations of nisin or brominated nisin variant in culture tubes at 37 °C and 180 rpm, with untreated bacteria serving as a negative control. At desired time points, 50 μL aliquots were taken, and 10-fold serial dilutions were plated on LB agar plates. After overnight incubation at 37 °C, colonies were counted, and colony-forming units (CFU) per milliliter were calculated. Each experiment was performed in triplicate.

[4] = tested on: Enterococcus faecium LMG16003 (VRE); experiment: MIC, broth microdilution; type: cell-based; conditions: E. faecium; from MIC values
Method: as §1

[5] = tested on: Staphylococcus aureus LMG10147; experiment: MIC, broth microdilution; type: cell-based; conditions: S. aureus (text: 'S. aureus' / 'one S. aureus'; by Table 2 LMG10147); from MIC values
Method: as §1

[6] = tested on: Enterococcus faecalis LMG16216 (VRE); experiment: MIC, broth microdilution; type: cell-based; conditions: E. faecalis; from MIC values
Method: as §1

Row | Compound | MIC [1] | effect of externally added purified lipid II on antimicrobial activity (inhibition halo) [3] | fold decrease in activity [1] | fold decrease in activity [5] | further results
1 | C=C(NC(=O)[C@@H](NC(=O)[C@H](Cc1c[nH]cn1)NC(=O)[C@@H](NC(=O)[C@H](CO)NC(=O)[C@@H]1CS[C@@H](C)[C@H]2NC(=O)[C@H](C)NC(=O)[C@H](NC(=O)[C@H](CCCCN)NC(=O)[C@H](CCSC)NC(=O)[C@H](CC(N)=O)NC(=O)[C@@H]3CS[C@@H](C)[C@@H](NC(=O)[C@H](CCCCN)NC(=O)[C@@H]4CS[C@@H](C)[C@@H](NC(=O)[C@@H]5CSC[C@@H](NC(=O)/C(=C/C)NC(=O)[C@@H](N)Cc6c[nH]c7ccc(Br)cc67)C(=O)N[C@@H]([C@@H](C)CC)C(=O)NC(=C)C(=O)N[C@@H](CC(C)C)C(=O)N5)C(=O)N5CCC[C@H]5C(=O)NCC(=O)N4)C(=O)NCC(=O)N[C@@H](C)C(=O)N[C@@H](CC(C)C)C(=O)N[C@@H](CCSC)C(=O)NCC(=O)N3)[C@H](C)SC[C@H](NC2=O)C(=O)N[C@@H](Cc2c[nH]cn2)C(=O)N1)[C@@H](C)CC)C(C)C)C(=O)N[C@@H](CCCCN)C(=O)O [nisin I1W 5BrTrp] | 0.04 µg/mL (≈ 0.0114 µM) | decreased the antimicrobial activity | – | – | fold improvement in antimicrobial activity (Bacillus cereus CH-85): 2 fold; fold improvement in antimicrobial activity [2]: 2 fold; killing activity (viability of exponential culture) (B. cereus CH-85; B. cereus CH-85, 2.5 μg/mL (lowest concentration tested)): only slight killing; killing activity (viability of exponential culture) (B. cereus CH-85; B. cereus CH-85, 15 μg/mL): slower bactericidal activity than did nisin
2 | C=C(NC(=O)[C@@H](NC(=O)[C@H](Cc1c[nH]cn1)NC(=O)[C@@H](NC(=O)[C@H](CO)NC(=O)[C@@H]1CS[C@@H](C)[C@H]2NC(=O)[C@H](C)NC(=O)[C@H](NC(=O)[C@H](CCCCN)NC(=O)[C@H](CCSC)NC(=O)[C@H](CC(N)=O)NC(=O)[C@@H]3CS[C@@H](C)[C@@H](NC(=O)[C@H](CCCCN)NC(=O)[C@@H]4CS[C@@H](C)[C@@H](NC(=O)[C@@H]5CSC[C@@H](NC(=O)/C(=C/C)NC(=O)[C@@H](N)Cc6c[nH]c7ccc(O)cc67)C(=O)N[C@@H]([C@@H](C)CC)C(=O)NC(=C)C(=O)N[C@@H](CC(C)C)C(=O)N5)C(=O)N5CCC[C@H]5C(=O)NCC(=O)N4)C(=O)NCC(=O)N[C@@H](C)C(=O)N[C@@H](CC(C)C)C(=O)N[C@@H](CCSC)C(=O)NCC(=O)N3)[C@H](C)SC[C@H](NC2=O)C(=O)N[C@@H](Cc2c[nH]cn2)C(=O)N1)[C@@H](C)CC)C(C)C)C(=O)N[C@@H](CCCCN)C(=O)O [nisin I1W 5OHTrp] | 0.08 µg/mL (≈ 0.0232 µM) | – | 2 fold | 2 fold | fold decrease in activity [4]: 2 fold
3 | C=C(NC(=O)[C@@H](NC(=O)[C@H](Cc1c[nH]cn1)NC(=O)[C@@H](NC(=O)[C@H](CO)NC(=O)[C@@H]1CS[C@@H](C)[C@H]2NC(=O)[C@H](C)NC(=O)[C@H](NC(=O)[C@H](CCCCN)NC(=O)[C@H](CCSC)NC(=O)[C@H](CC(N)=O)NC(=O)[C@@H]3CS[C@@H](C)[C@@H](NC(=O)[C@H](CCCCN)NC(=O)[C@@H]4CS[C@@H](C)[C@@H](NC(=O)[C@@H]5CSC[C@@H](NC(=O)/C(=C/C)NC(=O)[C@@H](N)Cc6c[nH]c7cc(Br)ccc67)C(=O)N[C@@H]([C@@H](C)CC)C(=O)NC(=C)C(=O)N[C@@H](CC(C)C)C(=O)N5)C(=O)N5CCC[C@H]5C(=O)NCC(=O)N4)C(=O)NCC(=O)N[C@@H](C)C(=O)N[C@@H](CC(C)C)C(=O)N[C@@H](CCSC)C(=O)NCC(=O)N3)[C@H](C)SC[C@H](NC2=O)C(=O)N[C@@H](Cc2c[nH]cn2)C(=O)N1)[C@@H](C)CC)C(C)C)C(=O)N[C@@H](CCCCN)C(=O)O [nisin I1W 6BrTrp] | 0.08 µg/mL (≈ 0.0228 µM) | – | 2 fold | 2 fold | fold decrease in activity [6]: 2 fold
4 | C=C(NC(=O)[C@@H](NC(=O)[C@H](Cc1c[nH]cn1)NC(=O)[C@@H](NC(=O)[C@H](CO)NC(=O)[C@@H]1CS[C@@H](C)[C@H]2NC(=O)[C@H](C)NC(=O)[C@H](NC(=O)[C@H](CCCCN)NC(=O)[C@H](CCSC)NC(=O)[C@H](CC(N)=O)NC(=O)[C@@H]3CS[C@@H](C)[C@@H](NC(=O)[C@H](CCCCN)NC(=O)[C@@H]4CS[C@@H](C)[C@@H](NC(=O)[C@@H]5CSC[C@@H](NC(=O)/C(=C/C)NC(=O)[C@@H](N)Cc6c[nH]c7ccccc67)C(=O)N[C@@H]([C@@H](C)CC)C(=O)NC(=C)C(=O)N[C@@H](CC(C)C)C(=O)N5)C(=O)N5CCC[C@H]5C(=O)NCC(=O)N4)C(=O)NCC(=O)N[C@@H](C)C(=O)N[C@@H](CC(C)C)C(=O)N[C@@H](CCSC)C(=O)NCC(=O)N3)[C@H](C)SC[C@H](NC2=O)C(=O)N[C@@H](Cc2c[nH]cn2)C(=O)N1)[C@@H](C)CC)C(C)C)C(=O)N[C@@H](CCCCN)C(=O)O [nisin I1W Trp] | 0.04 µg/mL (≈ 0.0117 µM) | – | 2 fold | – | –
5 | daptomycin [reference compound] | – | maintained its antimicrobial activity | – | – | –
